Legend:
[1] = biological target: human acetyl-CoA carboxylase 2 (hACC2) (Homo sapiens, UniProt O00763); assay: In vitro ACC enzyme inhibition (ADP luminescence), hACC2; format: biochemical; settings: human ACC2 enzyme; 15 min pre-incubation, 1 hour reaction at room temperature
Method: (§1) The IC50 value was determined to evaluate the ability of the test compounds to inhibit acetyl-CoA carboxylase (ACC).
(§2) Protein: human acetyl-CoA carboxylase 1 (hACC1) and human acetyl-CoA carboxylase 2 (hACC2).
(§3) Cofactor: acetyl coenzyme A, ATP
(§4) Activator: potassium citrate
(§5) 1. 1 time of the enzyme/substrate/cofactor was added to the wells of the well plate.
(§6) 2. According to Acoustic technology, the solutions of the compounds in DMSO were added to the above enzyme mixture and the mixture was pre-incubated for 15 minutes.
(§7) 3. ATP was added to initiate the reaction and the mixture was shaken until thoroughly mixed.
(§8) 4. The mixture was incubated for 1 hour at room temperature.
(§9) 5. After quenching the reaction, the incubation continued for 40 minutes.
(§10) 6. After adding the detection reagents, the mixture was incubated for 30 minutes.
(§11) 8. Data analysis: based on the standard curve of ADP, the luminescence was converted into ADP product concentration and the enzyme activity was calculated. Graphpad Prism software was used to fit the curve to obtain the IC50 value.

[2] = Pharmacokinetics in C57BL/6 mice (iv and oral); format: in vivo; settings: mouse, plasma, male C57BL/6 mice; for clearance / half-life / AUC(0-t): iv 2.0 mg/kg, oral 10 mg/kg (route not given); for half-life: read-out: Half-life T1/2 (converted); for bioavailability: oral 10 mg/kg vs iv 2.0 mg/kg, read-out: Bioavailability F
Method: Testing the pharmacokinetics characteristics of the compounds in C57BL/6 mice
C57BL/6 mice (male, 18-30 g, 7-9 weeks, Shanghai Lingchang Biotechnology Co., Ltd.)
The clear solution of the test compounds (0.5 mg/mL in 10% DMSO, 10% polyethylene glycol stearate, 80% water) was injected via tail vein into 4 male C57BL/6 mice (overnight fasted, 7-9 weeks), at a dose of 2.0 mg/kg. The suspensions or clear solutions of the test compounds (1 mg/mL in 10% PEG400, 90% (0.5% methylcellulose+0.2% Tween 80)) were administrated by oral gavage to 4 male C57BL/6 mice (overnight fasted, 7-9 weeks), at a dose of 10 mg/kg.
Two mice were set in each group and subjected to blood sampling alternatively, 4 to 5 time points per mouse. At 0.0833h (IV group only), 0.25 h, 0.5 h, 1.0 h, 2.0 h, 4.0 h, 6.0 h, 8.0 h, and 24 h after the intravenous or oral administration, about 30 μL of blood was collected by saphenous vein puncture and added into an anticoagulation tube with EDTA-K2, and the plasma was isolated by centrifugation. The drug plasma concentration was determined by LC-MS/MS, and WinNonlin™ Version 6.3 (Pharsight, Mountain View, Calif.) pharmacokinetic software was used to calculate relevant pharmacokinetic parameters using the non-compartmental model linear logarithmic trapezoidal method.

[3] = biological target: human acetyl-CoA carboxylase 1 (hACC1) (Homo sapiens, UniProt Q13085); assay: In vitro ACC enzyme inhibition (ADP luminescence), hACC1; format: biochemical; settings: human ACC1 enzyme; 15 min pre-incubation, 1 hour reaction at room temperature
Method: as §1, §2, §3, §4, §5, §6, §7, §8, §9, §10, §11

[4] = test system: NASH mouse model induced by HFD+CCl4; assay: In vivo pharmacodynamic study in NASH mouse model induced by HFD+CCl4; settings: HFD+CCl4 mice; oral gavage QD Day 0-27; WX004B 0.5, 1, 3 mg/kg; reference I-181 3 mg/kg
Source text: The objective of this research is to study the effect of the compound on improving NASH and liver fibrosis in HFD+CCl4 mouse model, with 1-181 as the reference compound.
1-181 is an Acetyl-CoA carboxylase inhibitor and is currently undergoing a phase II clinical study on non-alcoholic fatty liver disease (NAFLD). The HFD+CCl4 mouse model used in this study is an animal model simulating human non-alcoholic fatty liver disease evolving into NASH, high-fat diet causes the fat accumulation and steatosis in liver cells; CCl4 (intraperitoneal injection, twice a week) simulates the “second hit” of liver injury.
The modeling for this experiment included two steps of high-fat feed and CCl4 induction. Firstly, the mice were fed with high-fat feed to induce non-alcoholic fatty liver, and mice with body weight >38 g were selected. The mice were continuously fed with high-fat feed, and simultaneously intraperitoneally injected with 25% CCl4, […], twice a week, for a total of four weeks. The day of starting CCl4 administration was set as day 0, and the time of starting CCl4 administration was set as hour 0. On the day of starting CCl4 administration, the intragastric administration was started, and the administration volume of each group was 5 mL/kg, once a day for 4 weeks (28 days). […]

human acetyl-CoA carboxylase 2 (hACC2), sequence (O00763 whole entry): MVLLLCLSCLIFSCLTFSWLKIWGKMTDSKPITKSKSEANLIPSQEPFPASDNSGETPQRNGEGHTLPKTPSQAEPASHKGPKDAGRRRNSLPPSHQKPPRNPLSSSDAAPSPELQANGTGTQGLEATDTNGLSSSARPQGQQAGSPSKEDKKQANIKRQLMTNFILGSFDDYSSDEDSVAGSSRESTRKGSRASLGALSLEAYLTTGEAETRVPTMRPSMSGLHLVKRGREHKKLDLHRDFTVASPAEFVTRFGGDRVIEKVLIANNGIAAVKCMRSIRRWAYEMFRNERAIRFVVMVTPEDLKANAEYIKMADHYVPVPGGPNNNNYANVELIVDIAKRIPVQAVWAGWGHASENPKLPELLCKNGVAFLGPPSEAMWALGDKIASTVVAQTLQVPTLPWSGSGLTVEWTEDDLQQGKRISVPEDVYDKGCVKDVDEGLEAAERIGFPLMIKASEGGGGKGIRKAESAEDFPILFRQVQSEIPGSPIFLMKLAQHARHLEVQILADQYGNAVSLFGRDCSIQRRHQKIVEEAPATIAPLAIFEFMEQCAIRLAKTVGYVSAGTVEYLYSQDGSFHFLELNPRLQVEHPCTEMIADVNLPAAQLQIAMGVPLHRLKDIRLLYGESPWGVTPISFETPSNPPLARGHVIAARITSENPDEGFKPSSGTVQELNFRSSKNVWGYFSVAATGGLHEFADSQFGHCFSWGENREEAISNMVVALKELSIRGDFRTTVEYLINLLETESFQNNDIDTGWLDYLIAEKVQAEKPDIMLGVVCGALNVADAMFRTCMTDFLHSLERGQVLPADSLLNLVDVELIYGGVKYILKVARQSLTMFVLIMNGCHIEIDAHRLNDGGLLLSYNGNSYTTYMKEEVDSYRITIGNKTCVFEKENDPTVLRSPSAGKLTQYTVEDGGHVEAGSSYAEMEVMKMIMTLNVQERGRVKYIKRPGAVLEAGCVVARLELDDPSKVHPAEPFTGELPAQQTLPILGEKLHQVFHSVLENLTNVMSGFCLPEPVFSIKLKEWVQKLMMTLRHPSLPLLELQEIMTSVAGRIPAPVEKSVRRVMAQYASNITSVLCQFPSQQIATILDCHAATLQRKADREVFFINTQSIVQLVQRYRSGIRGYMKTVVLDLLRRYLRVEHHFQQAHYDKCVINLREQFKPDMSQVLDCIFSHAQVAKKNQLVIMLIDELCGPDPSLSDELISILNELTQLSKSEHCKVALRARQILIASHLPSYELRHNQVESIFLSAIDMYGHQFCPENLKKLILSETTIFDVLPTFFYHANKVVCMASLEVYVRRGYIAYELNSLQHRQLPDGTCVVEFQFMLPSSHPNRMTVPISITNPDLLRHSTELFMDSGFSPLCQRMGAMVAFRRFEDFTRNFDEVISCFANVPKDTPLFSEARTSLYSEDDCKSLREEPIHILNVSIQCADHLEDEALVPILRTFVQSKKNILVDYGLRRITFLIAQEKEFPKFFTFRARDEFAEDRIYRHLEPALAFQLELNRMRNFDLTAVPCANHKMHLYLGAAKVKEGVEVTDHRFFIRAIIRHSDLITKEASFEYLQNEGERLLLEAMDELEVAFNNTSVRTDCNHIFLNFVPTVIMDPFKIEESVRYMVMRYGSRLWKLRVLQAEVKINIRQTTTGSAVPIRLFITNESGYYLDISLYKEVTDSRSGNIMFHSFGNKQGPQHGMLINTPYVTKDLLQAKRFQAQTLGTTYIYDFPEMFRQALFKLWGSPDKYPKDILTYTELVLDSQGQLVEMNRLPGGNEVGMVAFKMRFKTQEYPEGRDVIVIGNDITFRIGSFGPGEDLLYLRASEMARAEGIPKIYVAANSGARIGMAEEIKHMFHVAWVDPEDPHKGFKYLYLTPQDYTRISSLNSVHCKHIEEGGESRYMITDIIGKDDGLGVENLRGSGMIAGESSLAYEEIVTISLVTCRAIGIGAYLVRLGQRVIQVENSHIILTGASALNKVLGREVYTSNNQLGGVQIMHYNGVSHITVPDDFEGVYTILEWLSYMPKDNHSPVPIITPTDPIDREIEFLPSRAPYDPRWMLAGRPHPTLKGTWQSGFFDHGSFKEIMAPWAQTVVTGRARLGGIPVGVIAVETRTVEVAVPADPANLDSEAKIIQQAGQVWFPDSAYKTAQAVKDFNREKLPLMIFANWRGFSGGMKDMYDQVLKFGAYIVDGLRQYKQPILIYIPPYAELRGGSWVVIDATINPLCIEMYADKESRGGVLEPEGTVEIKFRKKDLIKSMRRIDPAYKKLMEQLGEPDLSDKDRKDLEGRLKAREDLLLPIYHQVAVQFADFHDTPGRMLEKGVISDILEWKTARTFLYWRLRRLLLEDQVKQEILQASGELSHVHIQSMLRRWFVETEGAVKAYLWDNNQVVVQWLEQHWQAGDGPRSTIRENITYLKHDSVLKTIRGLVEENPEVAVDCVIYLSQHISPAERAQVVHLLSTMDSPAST

IC50 [1] | IC50 [3] | Compound | also measured
11 nM | 5.6 nM | COc1ccccc1[C@H](Cn1nc(C(F)(F)C(=O)O)c(=O)c2c(C)c(-c3ncco3)sc21)OC1CCOCC1 [WX009B] | clearance [2]: 92.1 mL/min/kg; half-life [2]: 36.6 min; bioavailability [2]: 1.26%; AUC(0-t) [2]: 0.04 µM·h
12.6 nM | 9.1 nM | COc1ccccc1[C@H](Cn1nc(C2(C(=O)O)CCCCC2)c(=O)c2c(C)c(-c3ncco3)sc21)OC1CCOCC1 [WX007B] | 
8.7 nM | 53.6 nM | COc1ccccc1C(Cn1nc(CC(=O)O)c(=O)c2c(C)c(-c3ncco3)sc21)OC1CCOCC1 (stereo not drawn) [WX002] | 
5.7 nM | 14.2 nM | COc1ccccc1C(Cn1nc(C(C)(C)C(=O)O)c(=O)c2c(C)c(-c3ncco3)sc21)OC1CCN(S(C)(=O)=O)CC1 (racemic) [WX012] | 
8 nM | 4.9 nM | COc1ccccc1C(Cn1nc(C2(C(=O)O)CCCC2)c(=O)c2c(C)c(-c3ncco3)sc21)OC1CCOCC1 (single isomer, unassigned) [WX001B] | 
7.2 nM | 26 nM | COc1ccccc1C(Cn1nc(C(C)(C)C(=O)O)c(=O)c2c(C)c(-c3ncco3)sc21)OC1CCN(C(=O)OC(C)(C)C)CC1 (stereo not drawn) [WX014] | 
3.4 nM | 10.9 nM | COc1ccccc1C(Cn1nc(CC(=O)O)c(=O)c2c(C)c(-c3ncco3)sc21)OC1CCOCC1 (single isomer, unassigned) [WX003B] | 
 |  | COc1ccccc1[C@H](Cn1nc(C(C)(C)C(=O)O)c(=O)c2c(C)c(-c3ncco3)sc21)OC1CCOCC1 [WX004B] | Efficacy in NAS (anti-NASH effect) [4]: the same efficacy in both NAS and fibrosis as the reference compound at a higher dose; Efficacy in fibrosis (anti-fibrosis effect) [4]: the same efficacy in both NAS and fibrosis as the reference compound at a higher dose; AUC(0-t) [2]: 7.21 µM·h
22.1 nM | 20.3 nM | COc1ccccc1C(Cn1nc(C2(C(=O)O)CCC2)c(=O)c2c(C)c(-c3ncco3)sc21)OC1CCOCC1 (stereo not drawn) [WX006] | 
10.9 nM | 26 nM | COc1ccccc1C(Cn1nc(C(C)(C)C(=O)O)c(=O)c2c(C)c(-c3ncco3)sc21)OC1CCN(C(C)=O)CC1 (racemic) [WX011] | 
7 nM | 20.2 nM | COC(=O)N1CCC(OC(Cn2nc(C(C)(C)C(=O)O)c(=O)c3c(C)c(-c4ncco4)sc32)c2ccccc2OC)CC1 (racemic) [WX015] | 
4.8 nM | 11.1 nM | COc1ccc(F)cc1[C@H](Cn1nc(C(C)(C)C(=O)O)c(=O)c2c(C)c(-c3ncco3)sc21)OC1CCOCC1 [WX016B] | 
45 nM | 46.6 nM | COc1ccccc1C(Cn1nc(C2(C(=O)O)CC2)c(=O)c2c(C)c(-c3ncco3)sc21)OC1CCOCC1 (stereo not drawn) [WX005] | 
13.9 nM | 5.3 nM | COc1ccccc1[C@H](Cn1nc(C2(C(=O)O)CCOCC2)c(=O)c2c(C)c(-c3ncco3)sc21)OC1CCOCC1 [WX008B] | clearance [2]: 51.9 mL/min/kg; half-life [2]: 36 min; bioavailability [2]: 5.86%; AUC(0-t) [2]: 0.304 µM·h

Compound | IC50 [1] | IC50 [3] | also measured
COc1ccccc1C(Cn1nc(C2(C(=O)O)CCNCC2)c(=O)c2c(C)c(-c3ncco3)sc21)OC1CCOCC1 (stereo not drawn) [WX010] | 70.7 nM | 83.9 nM | 

From patent publication US11680070B2, “Thieno[2,3-c]pyridazin-4(1H)-one derivative and application thereof” (MEDSHINE DISCOVERY INC., priority 2018, dated 2023)
